Experimental data taken from patent US5948784A, “Quinazoline derivatives” (Kyowa Hakko Kogyo Co., Ltd., priority 1994, dated 1999).

Legend:
[1] = test system: [^3 H]-adenosine uptake in erythrocytes; experiment: Inhibitory Effect on [^3 H]-Adenosine Uptake (washed erythrocytes); type: cell-based, human (healthy male adult); details: Homo sapiens; erythrocyte suspension, 1 hour preincubation at room temperature, 10 seconds uptake; read-out: [^3 H]-Adenosine Uptake Inhibition IC50
Experimental: A blood sample was obtained from a healthy adult under 40 years of age by brachial venipuncture using a syringe containing sodium citrate and subjected to centrifugation to obtain washed erythrocytes. […] Ten seconds later, 200 μl of a dilazep solution (1 mg/ml) was added to stop the reaction. […] The supernatant was removed and the erythrocyte fraction was separated. […] The concentration of the test compound which inhibits the [^3 H]-adenosineuptake by 50% (IC50) was calculated.

[2] = molecular target: T1, [^3 H]-Nitrobenzylthioinosine (NBI) binding, cerebral cortex homogenate (Cavia porcellus, UniProt H0V4R7); experiment: Inhibitory Effect on [^3 H]-Nitrobenzylthioinosine (NBI) Binding; parameters: species or system guinea pig (male, Hartley strain); details: guinea pig cerebral cortex, 1.5 nM [^3 H]-NBI, 25° C., 30 minutes, Cheng-Prusoff
T1 construct: The cerebral cortex of a male guinea pig of Hartley strain was homogenized; from tissue; host or cells: cerebral cortex of male Hartley guinea pig (washed membrane precipitate)
T1 sequence (H0V4R7 1-461): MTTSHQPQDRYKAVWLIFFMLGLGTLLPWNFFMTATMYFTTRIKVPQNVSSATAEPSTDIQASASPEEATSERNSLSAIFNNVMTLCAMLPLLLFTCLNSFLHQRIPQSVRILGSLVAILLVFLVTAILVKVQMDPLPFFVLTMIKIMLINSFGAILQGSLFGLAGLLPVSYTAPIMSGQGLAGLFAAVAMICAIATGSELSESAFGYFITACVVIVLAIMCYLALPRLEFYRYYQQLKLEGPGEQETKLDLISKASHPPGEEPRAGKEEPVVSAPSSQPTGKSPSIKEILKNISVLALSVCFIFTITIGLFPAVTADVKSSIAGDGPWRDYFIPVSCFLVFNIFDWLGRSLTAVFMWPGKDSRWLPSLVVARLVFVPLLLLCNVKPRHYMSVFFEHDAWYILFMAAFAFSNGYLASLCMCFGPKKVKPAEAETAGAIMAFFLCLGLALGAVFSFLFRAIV
Experimental: The cerebral cortex of a male guinea pig of Hartley strain was homogenized with an ice-cooled 50 mM tris-HCl buffer (pH 7.4) in an amount of 25 times (w/v) that of the tissue. The homogenate was centrifuged (30,000×g, 4° C., 20 mins.), and the supernatant was discarded. To the precipitate was added the same amount of the buffer, followed by homogenization and then centrifugation in the same manner as above. The obtained precipitate was suspended in 20 times as much buffer as the precipitate to prepare a suspension for testing. To a DMSO solution of a test compound were added 1.5 nM of [^3 H]-NBI and 5 mg (wet basis) of the tissue homogenate, and the mixture was allowed to stand at 25° C. for 30 minutes. To the mixture was added 4 ml of an ice-cooled buffer, followed by rapid filtration with suction through a glass filter (GF/C, produced by Whatman Ltd.) or a Ready filter (produced by Beckman Co.) to stop the reaction. The filter was transferred to a scintillation vial, and after drying, Scintisol EX-H was added thereto. The radioactivity was measured with a liquid scintillation counter. The binding inhibitory activity was expressed in terms of an inhibition constant (Ki value) as calculated according to Cheng-Prusoff's formula.

dd-strain male mice = experiment: Acute Toxicity Test; type: in vivo; details: mortality seven days after administration
Experimental: A test compound was orally or intraperitoneally administered to groups of dd-strain male mice weighing 20±1 g, each group consisting of three mice. […] The MLD was >1000 mg/kg for oral administration of Compound 10 and was >100 mg/kg for intraperitoneal administration of Compound 10.

[3] = test system: Masugi Nephritis in ddY-strain male mice; experiment: Effect on Increase of Albumin Excretion in Masugi Nephritis; type: in vivo, mouse
Experimental: Mouse nephrotoxin (hereinafter referred to as NT) was prepared according to the method of Ito, et al. [The Japanese Journal of Nephrology, 23, 25-36 (1981)]. That is, glomerular basement membrane (hereinafter referred to as GBM) was isolated from mouse kidney and digested with trypsin (Sigma). The digested GBM was subjected to ultracentrifugation under cooling, and the supernatant was dialyzed against distilled water, followed by lyophilization. The lyophile product was intracutaneously injected as an antigen into four foot pads of a rabbit together with Freund's complete adjuvant (Iatron; hereinafter referred to as FCA) once a week for 4 weeks for immunization. The whole blood was drawn from the immunized rabbit, and serum was separated and inactivated at 56° C. for 30 minutes to prepare NT.
In this test, ddY-strain male mice weighing 29-36 g were used. For previous immunization, 0.25 ml of an FCA emulsion containing 0.25 mg of rabbit immunoglobulin-globulin (IgG, Sigma) was intraperitoneally injected into mice. Nephritis was induced by intravenous injection of 0.075 ml of NT through the tail vein 4 and 11 days after the previous immunization. […] The supernatant was analyzed for albumin using an autoanalyzer (Olympus). […]
The results are shown in Table 7 as the means±standard error of each group consisting of 11 mice. Statistical significance was evaluated by Student's t-test.

[4] = test system: Diabetic Nephropathy (STZ) in ddY-strain male mice; experiment: Effect on Increase of Albumin Excretion in Diabetic Nephropathy; type: in vivo, mouse; details: for Urinary Albumin Content: mean, standard error, control 333 ± 30, normal 80 ± 3
Experimental: In this test, ddY-strain male mice weighing 25-28 g were used. Diabetes was induced according to the method of Tsuchida, et al. [Jin To Toseki (Kidney and Dialysis), 31, 363-366 (1991)]. That is, streptozotocin (5 mg/ml, Sigma; hereinafter referred to as STZ) dissolved in 0.05 M citrate buffer was intravenously injected into mice through the tail vein at a dose of 10 ml/kg. On the fourth day after the STZ administration, 30 μl of blood was collected from the tail vein of the mice and the blood glucose was determined using Glutestsensor (Sanwa Kagaku). The animals were divided into three groups based on the blood glucose level. Twelve weeks after the STZ administration, each mouse was put into a metabolic cage and received oral administration of 0.5 ml/10 g of distilled water twice at an interval of 12 hours. Urine was collected for 24 hours, and after measurement of the volume, the urine was centrifuged under cooling (3000 rpm, 4° C. ) for 5 minutes. The supernatant was analyzed for albumin using an autoanalyzer (Olympus). A test compound was orally administered once a day for 11 weeks, starting on the fifth day after the STZ administration. The normal group and the control group received oral administration of a solvent (5% methyl cellulose solution). The results are shown in Table 8 as the means standard error of each group. Statistical significance was evaluated by Aspin-Welch's test for the difference between the control group and the normal group and by Steel's test for the difference between the control group and the test compound-administered group.

Row | Compound | IC50 [1] [nM] | Ki [2] [nM] | other results
1 | COc1cc2nc(N3CCOCC3)nc(N3CCC(n4c(=O)c5cc(C)ccc5n(C)c4=O)CC3)c2cc1OC [Compound 1, 3-[1-(6,7-Dimethoxy-2-morpholino-4-quinazolinyl)-4-piperidinyl]-1,2,3,4-tetrahydro-1,6-dimethyl-2,4-dioxoquinazoline] | 35 | 2 | 
2 | COc1cc2nc(N3CCN(C)CC3)nc(N3CCC(n4c(=O)c5cc(C)ccc5n(C)c4=O)CC3)c2cc1OC [Compound 2, 3-{1-[6,7-Dimethoxy-2-(4-methyl-1-piperazinyl)-4-quinazolinyl]-4-piperidinyl}-1,2,3,4-tetrahydro-1,6-dimethyl-2,4-dioxoquinazoline] | 64 |  | 
3 | CCOC(=O)C1CCN(c2nc(N3CCC(n4c(=O)c5cc(C)ccc5n(C)c4=O)CC3)c3cc(OC)c(OC)cc3n2)CC1 [Compound 3, 3-{1-[2-(4-Ethoxycarbonylpiperidino)-6,7-dimethoxy-4-quinazolinyl]-4-piperidinyl}-1,2,3,4-tetrahydro-1,6-dimethyl-2,4-dioxoquinazoline] |  | 7.6 | 
4 | COc1cc2nc(N3CCC(C(=O)O)CC3)nc(N3CCC(n4c(=O)c5cc(C)ccc5n(C)c4=O)CC3)c2cc1OC [Compound 4, 3-{1-[2-(4-Carboxypiperidino)-6,7-dimethoxy-4-quinazolinyl]-4-piperidinyl}-1,2,3,4-tetrahydro-1,6-dimethyl-2,4-dioxoquinazoline] | 72 |  | 
5 | COc1cc2nc(N(C)C)nc(N3CCC(n4c(=O)c5cc(C)ccc5n(C)c4=O)CC3)c2cc1OC [Compound 5, 3-[1-(2-Dimethylamino-6,7-dimethoxy-4-quinazolinyl)-4-piperidinyl]-1,2,3,4-tetrahydro-1,6-dimethyl-2,4-dioxoquinazoline] |  | 2.6 | 
6 | COc1cc2nc(N(CCO)CCO)nc(N3CCC(n4c(=O)c5cc(C)ccc5n(C)c4=O)CC3)c2cc1OC [Compound 6, 3-{1-[2-Bis(2-hydroxyethyl)amino-6,7-dimethoxy-4-quinazolinyl]-4-piperidinyl}-1,2,3,4-tetrahydro-1,6-dimethyl-2,4-dioxoquinazoline] | 29 | 1.5 | 
7 | COc1cc2nc(N(C)CCN(C)C)nc(N3CCC(n4c(=O)c5cc(C)ccc5n(C)c4=O)CC3)c2cc1OC [Compound 7, 3-{1-{2-[N-(2-Dimethylaminoethyl)-N-methylamino]-6,7-dimethoxy-4-quinazolinyl}-4-piperidinyl}-1,2,3,4-tetrahydro-1,6-dimethyl-2,4-dioxoquinazoline] | 62 | 3.8 | 
8 | CCCNc1nc(N2CCC(n3c(=O)c4cc(C)ccc4n(C)c3=O)CC2)c2cc(OC)c(OC)cc2n1 [Compound 8, 3-[1-(6,7-Dimethoxy-2-propylamino-4-quinazolinyl)-4-piperidinyl]-1,2,3,4-tetrahydro-1,6-dimethyl-2,4-dioxoquinazoline] | 50 | 1.4 | 
9 | CCOc1cc2nc(N3CCOCC3)nc(N3CCC(n4c(=O)c5cc(C)ccc5n(C)c4=O)CC3)c2cc1OCC.Cl [Compound 10, 3-[1-(6,7-Diethoxy-2-morpholino-4-quinazolinyl)-4-piperidinyl]-1,2,3,4-tetrahydro-1,6-dimethyl-2,4-dioxoquinazoline hydrochloride] | 97 | 2 | minimum lethal dose (MLD), intraperitoneal (dd-strain male mice; intraperitoneal): > 100 mg/kg; minimum lethal dose (MLD), oral (dd-strain male mice; oral): > 1000 mg/kg; Urinary Albumin Content ([3]; 1 mg/kg oral once a day, mean ± standard error, 11 mice, control 134 ± 9, normal 85 ± 5, marked **): 96 ± 7 mg/kg/24 hr; effect on increase of urinary albumin in nephritis (in words) ([3]; Masugi nephritis, mice): inhibits the increase of urinary albumin in nephritis; Urinary Albumin Content ([4]; 1 mg/kg oral once a day for 11 weeks, 10 animals, * less than 5% vs control): 244 ± 16 mg/kg/24 hr; Urinary Albumin Content ([4]; 10 mg/kg oral once a day for 11 weeks, 9 animals, ** less than 1% vs control): 200 ± 13 mg/kg/24 hr; effect on increase of urinary albumin in diabetic nephropathy (in words) ([4]; STZ diabetic nephropathy, mice): inhibits the increase of urinary albumin in diabetic nephropathy
